Test results as given in paper PMC9482650, “Quantitative fragmentomics allow affinity mapping of interactomes” (Nature Communications, 2022).
Ends that are not written are not given here. * marks the point of attachment. Biotin = O=C1N[C@H]2[C@H](CS[C@H]2CCCCC(=O)*)N1; ttds = NCCCOCCOCCOCCCNC(=O)CCC(=O)*

How the values were obtained:
LIN7C = assay: PBM-AP-MS from Jurkat extract; type: binding, Homo sapiens; details: prey LIN7C, PBM peptide bait
Method: (§1) For PBM-AP-MS experiments, 30 μl streptavidin resin was mixed with biotin or peptide at 50–60 μM concentration in 6–6.5 resin volume for 60 min to achieve resin saturation. For PDZ-AP-MS experiments, 30 μl streptavidin resin was mixed with biotinylated MBP or MBP-PDZ at 40-50 μM concentration in >1000× resin volume for 60 min to achieve resin saturation. After saturation, resins were washed a single time (ten resin volume, holdup buffer), and were depleted with biotin (1 mM biotin, 5–10 resin volume, 10 min). Finally, resins were washed two times. 0.5 ml 2 mg/ml cell lysate was added to the dry resin (1 mg total input) and were incubated at 4 °C for 2 h. Then, the beads were washed three times with 10 resin volume buffer containing: 50 mM TRIS pH 8.5, 150 mM NaCl, 1% TritonX-100, 10× complete EDTA-free protease inhibitor cocktail, 2 mM EDTA, 1 mM TCEP. Then, the beads were washed two times with ten resin volume buffer containing: 50 mM TRIS pH 8.5, 150 mM NaCl, 1 mM TCEP. Finally, captured protein was eluted from the resin in two steps and the eluted fractions were pooled. For each elution the beads were incubated for 30 min with three resin volume buffer containing: 20 mM TRIS pH8.5, 100 mM NaCl, 500 μM TCEP, 8 M Urea. Between each step, the beads were separated by mild centrifugation and the supernatant was removed by gentle pipetting.
(§2) Proteins were identified by database searching using SequestHT (Thermo Fisher Scientific) with Proteome Discoverer 2.4 software (PD2.4, Thermo Fisher Scientific) on human FASTA database downloaded from SwissProt (reviewed, release 2020_11_27, 20304 entries, https://www.uniprot.org/). Precursor and fragment mass tolerances were set at 7 ppm and 0.6 Da respectively, and up to two missed cleavages were allowed. Oxidation (M, +15.995 Da) was set as variable modification, and Carbamidomethylation (C, +57.021 Da) as fixed modification. Peptides and proteins were filtered with a false discovery rate at 1%. Label-free quantification was based on the extracted ion chromatography intensity of the peptides. All samples were measured in technical triplicates. The measured extracted ion chromatogram (XIC) intensities were normalized based on median intensities of the entire dataset to correct minor loading differences. For statistical tests and enrichment calculations, not detectable intensity values were treated with an imputation method, where the missing values were replaced by random values similar to the 10% of the lowest intensity values present in the entire dataset. Unpaired two-tailed T-test, assuming equal variance, were performed on obtained log2 XIC intensities. The detection threshold for enriched proteins in AP-MS experiments were analyzed above twofold enrichment with <0.01 P value. Then, proteins with PDZ-domains or PBMs were extracted from the list of enriched proteins. In case only a specific isoform of the detected protein contains a PBM, the identified peptide fragments were manually checked to check which isoform(s) were most likely detected. All raw LC-MS/MS data (from 165 runs) have been deposited to the ProteomeXchange via the PRIDE database with identifier PXD027743.

MAGI1 = assay: PBM-AP-MS from Jurkat extract; type: binding, Homo sapiens; details: prey MAGI1, PBM peptide bait
Method: as §1, §2

SCRIB = assay: PBM-AP-MS from Jurkat extract; type: binding, Homo sapiens; details: prey SCRIB, PBM peptide bait
Method: as §1, §2

CASK = assay: PBM-AP-MS from Jurkat extract; type: binding, Homo sapiens; details: prey CASK, PBM peptide bait
Method: as §1, §2

DLG1 = assay: PBM-AP-MS from Jurkat extract; type: binding, Homo sapiens; details: prey DLG1, PBM peptide bait
Method: as §1, §2

PDZ-proteins = assay: Estimated PPI affinity, additive association constants of all PDZ sites; type: binding, human;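 further: calculated estimate, not directly measured: domain-motif affinities from holdup assays, association constants summed over all PDZ sites, one motif bound at a time, weak interactions ignored, giving a lower limit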
Source text: We used the previously generated domain-motif interactome, consisting of the composite affinities (i.e., taken from the most reliable holdup method; see above) to estimate affinities of PPIs. We assumed that a multidomain PDZ-protein can only interact with a single PBM at the same time (Eq. (4)):4 PDZ+PBM⇌(PDZ−PBM)site1,or(PDZ−PBM)site2,or(PDZ−PBM)siten
Using this approximation, as proposed by others before[45], the association constant of a multi-site interaction is the sum of the association constants of all sites (Eq. (5)):5 Ka,additive=[PDZ−PBM]site1+[PDZ−PBM]site2+…+[PDZ−PBM]siten/[PDZ]×[PBM]=∑Ka,site
The contribution of unmeasurable weak interactions was also neglected in the calculations.

Question: How did the “Enrichment values compared to biotin controls” value (LIN7C) turn out when HPV30E6 ({Biotin-ttds}-RHTTSTETAV) was run?
Answer: The value was 26.9.

Question: And the “Enrichment values compared to biotin controls” value (MAGI1)?
Answer: Its value is 25.1.

Question: What about the “Enrichment values compared to biotin controls” value (SCRIB) of the same substance?
Answer: The value was 266.4.

Question: And the “Enrichment values compared to biotin controls” value (CASK)?
Answer: Its value is 11.1.

Question: And the “Enrichment values compared to biotin controls” value (DLG1)?
Answer: Its value is 488.6.

Question: And the “final additive pKd” value (PDZ-proteins; PDZ-protein AHNAK)?
Answer: The value was 3.716.

Question: And the “final additive pKd” value (PDZ-proteins; PDZ-protein CASK)?
Answer: The value was 3.5.

Question: What about the “final additive pKd” value (PDZ-proteins; PDZ-protein DLG1) of the same substance?
Answer: Its value is 5.729.

Question: What about the “final additive pKd” value (PDZ-proteins; PDZ-protein InaDl) of the same substance?
Answer: Its value is 4.166.

Question: What about the “final additive pKd” value (PDZ-proteins; PDZ-protein LAP2) of the same substance?
Answer: Its value is 4.458.

Question: And the “final additive pKd” value (PDZ-proteins; PDZ-protein LIN7C)?
Answer: Its value is 4.187.

Question: What about the “final additive pKd” value (PDZ-proteins; PDZ-protein LNX2) of the same substance?
Answer: The value was 3.771.

Question: What about the “final additive pKd” value (PDZ-proteins; PDZ-protein MAGI3) of the same substance?
Answer: Its value is 5.357.

Question: And the “final additive pKd” value (PDZ-proteins; PDZ-protein MPP5)?
Answer: Its value is 3.5.

Question: What about the “final additive pKd” value (PDZ-proteins; PDZ-protein MPP6) of the same substance?
Answer: The value was 3.5.

Question: And the “final additive pKd” value (PDZ-proteins; PDZ-protein MPP7)?
Answer: The value was 3.5.

Question: What about the “final additive pKd” value (PDZ-proteins; PDZ-protein NHERF2) of the same substance?
Answer: The value was 3.5.

Question: And the “final additive pKd” value (PDZ-proteins; PDZ-protein PDLIM2)?
Answer: The value was 3.5.

Question: What about the “final additive pKd” value (PDZ-proteins; PDZ-protein PDLIM5) of the same substance?
Answer: The value was 3.5.

Question: And the “final additive pKd” value (PDZ-proteins; PDZ-protein PDLIM7)?
Answer: The value was 3.5.

Question: And the “final additive pKd” value (PDZ-proteins; PDZ-protein PSMD9)?
Answer: Its value is 3.5.

Question: And the “final additive pKd” value (PDZ-proteins; PDZ-protein SCRIB)?
Answer: Its value is 5.522.

Question: What about the “final additive pKd” value (PDZ-proteins; PDZ-protein SNTB1) of the same substance?
Answer: The value was 5.102.

Question: What about the “final additive pKd” value (PDZ-proteins; PDZ-protein SNTB2) of the same substance?
Answer: The value was 4.675.

Question: What about the “final additive pKd” value (PDZ-proteins; PDZ-protein SNX27) of the same substance?
Answer: The value was 5.636.

Question: What about the “final additive pKd” value (PDZ-proteins; PDZ-protein SYNJ2BP) of the same substance?
Answer: Its value is 5.355.

Question: What about the “final additive pKd” value (PDZ-proteins; PDZ-protein TX1B3) of the same substance?
Answer: Its value is 4.653.

Question: What does the source list for HPV18E6?
Answer: Enrichment values compared to biotin controls (LIN7C): 68.0; Enrichment values compared to biotin controls (MAGI1): 134.3; Enrichment values compared to biotin controls (SCRIB): 288.2; Enrichment values compared to biotin controls (CASK): 15.2; Enrichment values compared to biotin controls (DLG1): 519.3; final additive pKd (PDZ-proteins; PDZ-protein AHNAK): 3.5; final additive pKd (PDZ-proteins; PDZ-protein CASK): 3.5; final additive pKd (PDZ-proteins; PDZ-protein DLG1): 5.948; final additive pKd (PDZ-proteins; PDZ-protein InaDl): 3.7336; final additive pKd (PDZ-proteins; PDZ-protein LAP2): 3.615; final additive pKd (PDZ-proteins; PDZ-protein LIN7C): 4.171; final additive pKd (PDZ-proteins; PDZ-protein LNX2): 3.17; final additive pKd (PDZ-proteins; PDZ-protein MAGI3): 5.558; final additive pKd (PDZ-proteins; PDZ-protein MPP5): 3.5; final additive pKd (PDZ-proteins; PDZ-protein MPP6): 3.5; final additive pKd (PDZ-proteins; PDZ-protein MPP7): 3.5; final additive pKd (PDZ-proteins; PDZ-protein NHERF2): 3.5; final additive pKd (PDZ-proteins; PDZ-protein PDLIM2): 3.5; final additive pKd (PDZ-proteins; PDZ-protein PDLIM5): 3.5; final additive pKd (PDZ-proteins; PDZ-protein PDLIM7): 3.5; final additive pKd (PDZ-proteins; PDZ-protein PSMD9): 3.5; final additive pKd (PDZ-proteins; PDZ-protein SCRIB): 5.064; final additive pKd (PDZ-proteins; PDZ-protein SNTB1): 5.229; final additive pKd (PDZ-proteins; PDZ-protein SNTB2): 4.58; final additive pKd (PDZ-proteins; PDZ-protein SNX27): 4.554; final additive pKd (PDZ-proteins; PDZ-protein SYNJ2BP): 5.349; final additive pKd (PDZ-proteins; PDZ-protein TX1B3): 4.665

Question: With HPV35E6 ({Biotin-ttds}-SKPTRRETEV) as the substance, how does the “Enrichment values compared to biotin controls” value (LIN7C) read?
Answer: The value was 34.7.

Question: What about the “Enrichment values compared to biotin controls” value (MAGI1) of the same substance?
Answer: Its value is 54.3.

Question: And the “Enrichment values compared to biotin controls” value (SCRIB)?
Answer: The value was 314.5.

Question: And the “Enrichment values compared to biotin controls” value (CASK)?
Answer: The value was 12.7.

Question: What about the “Enrichment values compared to biotin controls” value (DLG1) of the same substance?
Answer: Its value is 596.6.

Question: And the “final additive pKd” value (PDZ-proteins; PDZ-protein AHNAK)?
Answer: The value was 3.5.

Question: And the “final additive pKd” value (PDZ-proteins; PDZ-protein CASK)?
Answer: Its value is 3.5.

Question: And the “final additive pKd” value (PDZ-proteins; PDZ-protein DLG1)?
Answer: Its value is 5.779.

Question: What about the “final additive pKd” value (PDZ-proteins; PDZ-protein InaDl) of the same substance?
Answer: The value was 3.5.

Question: And the “final additive pKd” value (PDZ-proteins; PDZ-protein LAP2)?
Answer: Its value is 3.6933.

Question: And the “final additive pKd” value (PDZ-proteins; PDZ-protein LIN7C)?
Answer: The value was 3.759.

Question: What about the “final additive pKd” value (PDZ-proteins; PDZ-protein LNX2) of the same substance?
Answer: Its value is 3.5.

Question: What about the “final additive pKd” value (PDZ-proteins; PDZ-protein MAGI3) of the same substance?
Answer: The value was 5.407.

Question: What about the “final additive pKd” value (PDZ-proteins; PDZ-protein MPP5) of the same substance?
Answer: The value was 3.5.

Question: What about the “final additive pKd” value (PDZ-proteins; PDZ-protein MPP6) of the same substance?
Answer: The value was 3.5.

Question: And the “final additive pKd” value (PDZ-proteins; PDZ-protein MPP7)?
Answer: The value was 3.5.

Question: And the “final additive pKd” value (PDZ-proteins; PDZ-protein NHERF2)?
Answer: Its value is 3.774.

Question: What about the “final additive pKd” value (PDZ-proteins; PDZ-protein PDLIM2) of the same substance?
Answer: Its value is 3.5.

Question: And the “final additive pKd” value (PDZ-proteins; PDZ-protein PDLIM5)?
Answer: The value was 3.5.

Question: What about the “final additive pKd” value (PDZ-proteins; PDZ-protein PDLIM7) of the same substance?
Answer: The value was 3.5.

Question: And the “final additive pKd” value (PDZ-proteins; PDZ-protein PSMD9)?
Answer: Its value is 3.5.

Question: And the “final additive pKd” value (PDZ-proteins; PDZ-protein SCRIB)?
Answer: The value was 5.233.

Question: And the “final additive pKd” value (PDZ-proteins; PDZ-protein SNTB1)?
Answer: The value was 4.679.

Question: What about the “final additive pKd” value (PDZ-proteins; PDZ-protein SNX27) of the same substance?
Answer: The value was 4.662.

Question: What about the “final additive pKd” value (PDZ-proteins; PDZ-protein SYNJ2BP) of the same substance?
Answer: The value was 5.6853.

Question: What about the “final additive pKd” value (PDZ-proteins; PDZ-protein TX1B3) of the same substance?
Answer: The value was 4.927.
